Molecules are shown by their SMILES.

As a reminder, the GI50 is the concentration giving 50% growth inhibition.

Experiment [1] concerns BaF3-TEL-cKIT (stably expressing cKIT kinase). In words: Growth of BaF3-TEL-cKIT cells, Cell Titer-Glo, 72 h. The experiment is classed as cell-based, mouse. The source says:
(§1) In this example, mouse primary B cell BaF3 (purchased from ATCC, U.S.A.) was used. In addition, in this example, mouse BaF3-tel-PDGFRα (stably expressing PDGFRα kinase), mouse BaF3-tel-PDGFRβ (stably expressing PDGFRβ kinase), BaF3-P210 (stably expressing ABL kinase), BaF3-P210-T315I (stably expressing ABL-T315I kinase), BaF3-FL-BRAF-V600E (stably expressing BRAF-V600E kinase), BaF3-TEL-cKIT (stably expressing cKIT kinase), BaF3-TEL-VEGFR2 (stably expressing VEGFR2 kinase), BaF3-TEL-FGFR2 (stably expressing FGFR2 kinase) were also used. The above-mentioned cell trains were all constructed in our laboratory by the method as follows. The sequences of human BCR-ABL (P210 or P210/T315I mutated), full-length BRAF-V600E, cKIT, VEGFR2, FGFR2, PDGFRα, PDGFRβ kinase region were amplified respectively via PCR, and inserted respectively into a MSCV-Puro vector (purchased from Clontech) having a N-terminal TEL fragment and/or NPM fragment and/or TPR fragment, and stably transferred into mouse BaF3 cells by the retroviral method, and the growth factor IL-3 was removed. Eventually, cell lines which are transferred into proteins depending on PDGFRα, PDGFRβ were obtained.
(§2) In this example, solutions of the test compound at different concentrations (0.000508 μM, 0.00152 μM, 0.00457 μM, 0.0137 μM, 0.0411 μM, 0.123 μM, 0.370 μM, 1.11 μM, 3.33 μM, 10 μM) were added to the above cells. […]
On the technique in general: In ATP-based viability assays light output follows the ATP content of the culture.

For experiment [2], the system named is BaF3-TEL-VEGFR2 (stably expressing VEGFR2 kinase). The experiment in a line: Growth of BaF3-TEL-VEGFR2 cells, Cell Titer-Glo, 72 h. The experiment is classed as cell-based, mouse.
Source text: as §1, §2

The subject of experiment [3] is BaF3-P210 (stably expressing ABL kinase; BCR-ABL P210). The experiment in a line: Growth of BaF3-P210 cells, Cell Titer-Glo, 72 h. The experiment is classed as cell-based, mouse.
Source text: as §1, §2

In experiment [4] the test system is BaF3-P210-T315I (stably expressing ABL-T315I kinase). In words: Growth of BaF3-P210-T315I cells, Cell Titer-Glo, 72 h. The experiment is classed as cell-based, mouse.
Source text: as §1, §2

Experiment [5] has as its system BaF3-TEL-FGFR2 (stably expressing FGFR2 kinase). In words: Growth of BaF3-TEL-FGFR2 cells, Cell Titer-Glo, 72 h. The experiment is classed as cell-based, mouse.
Source text: as §1, §2

Experiment [6] concerns BaF3-tel-PDGFRα (stably expressing PDGFRα kinase). The experiment in a line: Growth of BaF3-tel-PDGFRα cells, Cell Titer-Glo, 72 h. The experiment is classed as cell-based, mouse.
Source text: as §1
(§3) In this example, solutions of the test compound at different concentrations (0.000508 μM, 0.00152 μM, 0.00457 μM, 0.0137 μM, 0.0411 μM, 0.123 μM, 0.370 μM, 1.11 μM, 3.33 μM, 10 μM) were added to the above cells. The cells were incubated for 72 hours.

Experiment [7] has as its system BaF3-tel-PDGFRβ (stably expressing PDGFRβ kinase). In words: Growth of BaF3-tel-PDGFRβ cells, Cell Titer-Glo, 72 h. The experiment is classed as cell-based, mouse.
Source text: as §1, §3

Another experiment deals with BaF3. In words: Growth of parental BaF3 cells, Cell Titer-Glo, 72 h. The experiment is classed as cell-based. The conditions noted are these: Mus musculus.
Source text: as §1, §3

Consider `Cc1ccc(NC(=O)c2cccc(C(F)(F)F)n2)cc1-n1cc(-c2cncc(N3CCN(C)CC3)c2)cn1` [Compound 1, N-(4-methyl-3-(4-(5-(4-methylpiperazin-1-yl)pyridin-3-yl)-1H-pyrazol-1-yl)phenyl)-6-(trifluoromethyl)picolinamide], for which the GI50 was 5.34 µM in experiment [1] (BaF3-TEL-cKIT cells, 72 hours); 4 µM in experiment [2] (BaF3-TEL-VEGFR2 cells, 72 hours); more than 10 µM in experiment [3] (BaF3-P210 cells, 72 hours); 5.16 µM in experiment [4] (BaF3-P210-T315I cells, 72 hours); 3.26 µM in experiment [5] (BaF3-TEL-FGFR2 cells, 72 hours); 56 nM in experiment [6]. Moreover, the results for the GI50 (in experiment [7]; in the experiment with BaF3) were 430 nM and 4.08 µM, respectively. Besides, in experiment [1] (summary of Table 2), the “inhibitory effect against cKIT (in words)” value is given as “no inhibitory effect, or a relatively weak inhibitory effect”. For the same compound, the “inhibitory effect against VEGFR2 (in words)” value in experiment [2] (summary of Table 2) is listed as “no inhibitory effect, or a relatively weak inhibitory effect”. Further, in experiment [3] (summary of Table 2), the “inhibitory effect against ABL (in words)” value is on record as “no inhibitory effect, or a relatively weak inhibitory effect”. In experiment [4] (summary of Table 2), the “inhibitory effect against ABL-T315I (in words)” value is listed as “no inhibitory effect, or a relatively weak inhibitory effect”. Besides, the “inhibitory effect against FGFR2 (in words)” value in experiment [5] (summary of Table 2) is “no inhibitory effect, or a relatively weak inhibitory effect”.

For the origin of these results see patent US12310963B2, “Pyrazole derivatives and use thereof” (Tarapeutics Science Inc., priority 2019, dated 2025).
